“Also recorded” adds a separate entry of the source. Where a name gives a salt, the structure may show the parent alone.
Tests used:
[1] = chronic and neuropathic pain; ref [45], [46]; cited from earlier work
[2] = system: α4β2-nAChR from rat cerebral cortical membranes; conditions: ref [39], [40]; cited from earlier work
α1β1γδ-nAChR = α1β1γδ-nAChR (Homo sapiens, UniProt P02708+P07510+Q07001); experiment: 86Rb+ efflux assay in TE671/RD cells; type: cell-based
[3] = system: immobility in the mouse forced swim test; experiment: Mouse forced swim test; type: in vivo
CYP2C19 = CYP2C19 (Homo sapiens, UniProt P33261); experiment: Multiple CYP inhibition assay in human liver microsomes, CYP2C19; type: in vitro ADME
CYP2C9 = CYP2C9 (Homo sapiens, UniProt P11712); experiment: Multiple CYP inhibition assay in human liver microsomes, CYP2C9; type: in vitro ADME
Chain of CYP2C9 (P11712 whole entry): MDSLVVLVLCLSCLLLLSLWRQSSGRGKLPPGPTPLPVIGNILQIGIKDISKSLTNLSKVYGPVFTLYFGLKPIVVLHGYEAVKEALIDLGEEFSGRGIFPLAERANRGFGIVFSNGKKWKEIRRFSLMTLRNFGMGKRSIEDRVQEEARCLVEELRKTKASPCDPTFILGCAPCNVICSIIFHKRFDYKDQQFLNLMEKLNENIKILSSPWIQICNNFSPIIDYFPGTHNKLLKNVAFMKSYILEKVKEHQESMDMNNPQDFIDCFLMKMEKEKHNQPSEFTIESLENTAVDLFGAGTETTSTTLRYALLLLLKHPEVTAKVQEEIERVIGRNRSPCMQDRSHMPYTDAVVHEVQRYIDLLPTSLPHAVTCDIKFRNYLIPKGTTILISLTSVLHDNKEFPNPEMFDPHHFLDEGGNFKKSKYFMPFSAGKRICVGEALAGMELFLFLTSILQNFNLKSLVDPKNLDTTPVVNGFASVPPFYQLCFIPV

human α4β2-nAChR = human α4β2-nAChR (Homo sapiens, UniProt P17787+P43681); experiment: 86Rb+ efflux assay in SH-EP1-hα4β2 cells; type: cell-based; conditions: efficacies similar to that of carbamylcholine
Chain of human α4β2-nAChR (P43681 29-627 limits assumed): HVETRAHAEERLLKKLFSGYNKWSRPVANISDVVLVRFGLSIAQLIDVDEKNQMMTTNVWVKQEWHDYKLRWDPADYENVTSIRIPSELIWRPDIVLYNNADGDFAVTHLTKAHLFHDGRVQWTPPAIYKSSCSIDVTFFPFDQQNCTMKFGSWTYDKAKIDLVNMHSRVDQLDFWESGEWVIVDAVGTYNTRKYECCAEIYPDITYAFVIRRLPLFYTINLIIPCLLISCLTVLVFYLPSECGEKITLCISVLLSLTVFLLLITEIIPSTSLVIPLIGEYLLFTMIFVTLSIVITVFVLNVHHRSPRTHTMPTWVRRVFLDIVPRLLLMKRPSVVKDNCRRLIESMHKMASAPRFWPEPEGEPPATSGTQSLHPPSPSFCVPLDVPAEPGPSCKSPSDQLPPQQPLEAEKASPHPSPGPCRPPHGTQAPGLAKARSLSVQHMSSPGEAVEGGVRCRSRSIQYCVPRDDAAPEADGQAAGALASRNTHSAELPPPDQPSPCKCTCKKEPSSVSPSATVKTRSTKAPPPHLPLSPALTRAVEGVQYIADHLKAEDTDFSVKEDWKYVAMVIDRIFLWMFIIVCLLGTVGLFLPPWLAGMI
Chain of human α4β2-nAChR (P17787 26-502): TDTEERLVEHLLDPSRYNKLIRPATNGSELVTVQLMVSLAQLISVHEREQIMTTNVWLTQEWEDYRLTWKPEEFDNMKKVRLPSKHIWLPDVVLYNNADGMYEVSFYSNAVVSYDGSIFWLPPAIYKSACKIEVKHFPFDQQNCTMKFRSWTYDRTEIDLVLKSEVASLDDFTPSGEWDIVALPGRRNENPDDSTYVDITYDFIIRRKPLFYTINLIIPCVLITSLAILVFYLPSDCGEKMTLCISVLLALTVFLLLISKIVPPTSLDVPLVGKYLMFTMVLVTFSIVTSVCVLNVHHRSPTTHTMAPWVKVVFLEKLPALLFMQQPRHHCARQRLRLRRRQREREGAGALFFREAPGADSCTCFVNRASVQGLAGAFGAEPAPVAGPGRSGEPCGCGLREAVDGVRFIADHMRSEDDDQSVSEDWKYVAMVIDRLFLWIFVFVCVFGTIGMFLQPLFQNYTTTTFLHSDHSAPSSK

CYP2B6 = target: T1, CYP2B6 (Homo sapiens, UniProt P20813); experiment: Multiple CYP inhibition assay in human liver microsomes, CYP2B6; type: in vitro ADME
T1 sequence (P20813 1-491): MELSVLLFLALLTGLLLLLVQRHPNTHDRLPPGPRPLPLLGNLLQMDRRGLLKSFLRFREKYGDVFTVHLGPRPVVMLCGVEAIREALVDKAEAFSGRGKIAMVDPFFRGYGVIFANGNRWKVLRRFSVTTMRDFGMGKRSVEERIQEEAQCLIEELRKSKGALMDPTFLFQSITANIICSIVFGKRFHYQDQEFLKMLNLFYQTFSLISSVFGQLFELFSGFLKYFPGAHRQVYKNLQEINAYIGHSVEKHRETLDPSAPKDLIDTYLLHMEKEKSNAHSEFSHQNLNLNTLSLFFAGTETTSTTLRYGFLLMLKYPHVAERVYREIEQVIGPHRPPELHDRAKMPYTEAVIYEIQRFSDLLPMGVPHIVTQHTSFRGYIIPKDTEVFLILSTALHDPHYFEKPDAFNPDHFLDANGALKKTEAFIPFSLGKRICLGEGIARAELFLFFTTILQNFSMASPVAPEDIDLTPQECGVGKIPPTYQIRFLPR

[4] = system: about 45 other CNS neurotransmitter receptors and transporters; experiment: Broad-range screening; type: binding; conditions: 10 μM; about 45 receptors and transporters
CYP3A4 = CYP3A4 (Homo sapiens, UniProt P08684); experiment: Multiple CYP inhibition assay in human liver microsomes, CYP3A4; type: in vitro ADME
CYP2D6 = CYP2D6 (Homo sapiens, UniProt P10635); experiment: Multiple CYP inhibition assay in human liver microsomes, CYP2D6; type: in vitro ADME
Chain of CYP2D6 (P10635 whole entry): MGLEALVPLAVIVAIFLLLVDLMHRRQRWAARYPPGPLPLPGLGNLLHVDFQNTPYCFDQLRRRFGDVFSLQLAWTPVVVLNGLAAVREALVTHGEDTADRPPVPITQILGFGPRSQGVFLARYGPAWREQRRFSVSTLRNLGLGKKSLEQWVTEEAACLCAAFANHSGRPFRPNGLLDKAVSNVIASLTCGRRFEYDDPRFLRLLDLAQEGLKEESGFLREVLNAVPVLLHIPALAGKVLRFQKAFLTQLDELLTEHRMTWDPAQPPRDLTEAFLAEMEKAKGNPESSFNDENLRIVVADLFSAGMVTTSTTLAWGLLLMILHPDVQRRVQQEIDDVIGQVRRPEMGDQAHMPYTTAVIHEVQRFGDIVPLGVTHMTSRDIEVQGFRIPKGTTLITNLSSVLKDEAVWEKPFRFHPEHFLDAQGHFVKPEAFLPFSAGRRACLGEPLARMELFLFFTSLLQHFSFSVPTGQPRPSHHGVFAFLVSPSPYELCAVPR

CYP1A2 = target: T2, CYP1A2 (Homo sapiens, UniProt P05177); experiment: Multiple CYP inhibition assay in human liver microsomes, CYP1A2; type: in vitro ADME
T2 sequence (P05177 1-516): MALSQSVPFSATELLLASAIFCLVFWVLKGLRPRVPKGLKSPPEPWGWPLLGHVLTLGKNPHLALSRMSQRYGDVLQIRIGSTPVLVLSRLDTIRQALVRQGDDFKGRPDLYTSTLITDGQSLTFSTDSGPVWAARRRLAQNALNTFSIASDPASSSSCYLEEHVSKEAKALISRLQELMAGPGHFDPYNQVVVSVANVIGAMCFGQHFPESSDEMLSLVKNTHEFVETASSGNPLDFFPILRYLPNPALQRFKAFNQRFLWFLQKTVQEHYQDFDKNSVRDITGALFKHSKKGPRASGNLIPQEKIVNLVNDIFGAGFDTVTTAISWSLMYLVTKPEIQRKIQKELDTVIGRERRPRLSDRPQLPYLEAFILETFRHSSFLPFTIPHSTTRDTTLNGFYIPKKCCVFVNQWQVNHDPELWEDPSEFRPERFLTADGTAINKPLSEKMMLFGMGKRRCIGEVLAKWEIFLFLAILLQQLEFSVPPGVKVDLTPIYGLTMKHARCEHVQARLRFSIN

α3β4*-nAChR = α3β4*-nAChR (Homo sapiens, UniProt P30926+P32297); experiment: 86Rb+ efflux assay in SH-SY5Y cells; type: cell-based; conditions: efficacies similar to that of carbamylcholine
Chain of α3β4*-nAChR (P32297 32-505): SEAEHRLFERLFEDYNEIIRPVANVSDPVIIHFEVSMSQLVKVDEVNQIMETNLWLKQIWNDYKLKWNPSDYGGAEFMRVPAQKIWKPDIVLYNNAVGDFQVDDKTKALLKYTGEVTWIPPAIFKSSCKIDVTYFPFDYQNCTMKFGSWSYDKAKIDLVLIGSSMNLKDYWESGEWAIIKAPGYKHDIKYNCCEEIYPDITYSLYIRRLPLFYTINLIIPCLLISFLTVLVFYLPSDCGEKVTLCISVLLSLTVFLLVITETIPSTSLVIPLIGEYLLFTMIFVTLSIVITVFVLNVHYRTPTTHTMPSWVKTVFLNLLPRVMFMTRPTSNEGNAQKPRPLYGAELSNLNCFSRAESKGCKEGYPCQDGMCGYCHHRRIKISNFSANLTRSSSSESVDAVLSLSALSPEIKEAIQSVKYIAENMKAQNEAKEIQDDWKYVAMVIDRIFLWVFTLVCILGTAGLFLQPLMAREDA
Chain of α3β4*-nAChR (P30926 22-498): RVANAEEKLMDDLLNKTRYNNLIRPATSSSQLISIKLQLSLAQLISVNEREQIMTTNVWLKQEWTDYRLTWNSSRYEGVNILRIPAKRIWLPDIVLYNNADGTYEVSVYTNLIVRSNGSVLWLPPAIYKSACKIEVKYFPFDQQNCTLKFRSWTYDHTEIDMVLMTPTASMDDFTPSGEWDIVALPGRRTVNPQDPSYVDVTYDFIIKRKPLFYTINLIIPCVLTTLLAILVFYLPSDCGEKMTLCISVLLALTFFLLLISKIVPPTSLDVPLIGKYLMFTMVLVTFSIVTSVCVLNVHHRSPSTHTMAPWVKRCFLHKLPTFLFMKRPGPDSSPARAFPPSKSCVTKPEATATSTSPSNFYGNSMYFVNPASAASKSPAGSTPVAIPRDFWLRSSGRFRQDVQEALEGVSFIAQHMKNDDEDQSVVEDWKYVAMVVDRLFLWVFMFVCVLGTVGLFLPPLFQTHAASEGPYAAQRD

Chain of α1β1γδ-nAChR (P02708 21-457): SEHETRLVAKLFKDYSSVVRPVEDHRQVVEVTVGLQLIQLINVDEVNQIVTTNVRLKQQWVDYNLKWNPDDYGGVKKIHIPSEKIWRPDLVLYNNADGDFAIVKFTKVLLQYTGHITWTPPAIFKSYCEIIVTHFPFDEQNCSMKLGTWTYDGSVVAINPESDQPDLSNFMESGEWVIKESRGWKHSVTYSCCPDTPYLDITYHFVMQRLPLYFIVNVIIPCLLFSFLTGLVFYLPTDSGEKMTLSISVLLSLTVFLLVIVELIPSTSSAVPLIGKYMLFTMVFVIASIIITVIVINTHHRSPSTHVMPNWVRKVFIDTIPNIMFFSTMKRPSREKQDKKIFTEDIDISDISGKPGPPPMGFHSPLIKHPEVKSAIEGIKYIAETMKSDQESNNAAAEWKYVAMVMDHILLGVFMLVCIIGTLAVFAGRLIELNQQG
Chain of α1β1γδ-nAChR (P11230 24-501 partner): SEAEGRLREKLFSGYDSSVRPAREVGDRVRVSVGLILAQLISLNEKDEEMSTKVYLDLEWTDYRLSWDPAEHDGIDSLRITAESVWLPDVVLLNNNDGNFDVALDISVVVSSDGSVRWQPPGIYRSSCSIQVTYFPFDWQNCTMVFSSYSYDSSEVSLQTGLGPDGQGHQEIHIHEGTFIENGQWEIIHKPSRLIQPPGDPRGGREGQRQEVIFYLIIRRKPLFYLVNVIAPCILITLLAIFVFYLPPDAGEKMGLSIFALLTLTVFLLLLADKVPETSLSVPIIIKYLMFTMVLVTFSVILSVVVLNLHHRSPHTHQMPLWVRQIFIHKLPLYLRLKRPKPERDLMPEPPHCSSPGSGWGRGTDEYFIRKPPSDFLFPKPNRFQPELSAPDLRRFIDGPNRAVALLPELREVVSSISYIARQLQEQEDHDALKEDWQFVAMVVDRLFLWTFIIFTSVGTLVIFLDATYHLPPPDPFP
Chain of α1β1γδ-nAChR (P07510 23-517): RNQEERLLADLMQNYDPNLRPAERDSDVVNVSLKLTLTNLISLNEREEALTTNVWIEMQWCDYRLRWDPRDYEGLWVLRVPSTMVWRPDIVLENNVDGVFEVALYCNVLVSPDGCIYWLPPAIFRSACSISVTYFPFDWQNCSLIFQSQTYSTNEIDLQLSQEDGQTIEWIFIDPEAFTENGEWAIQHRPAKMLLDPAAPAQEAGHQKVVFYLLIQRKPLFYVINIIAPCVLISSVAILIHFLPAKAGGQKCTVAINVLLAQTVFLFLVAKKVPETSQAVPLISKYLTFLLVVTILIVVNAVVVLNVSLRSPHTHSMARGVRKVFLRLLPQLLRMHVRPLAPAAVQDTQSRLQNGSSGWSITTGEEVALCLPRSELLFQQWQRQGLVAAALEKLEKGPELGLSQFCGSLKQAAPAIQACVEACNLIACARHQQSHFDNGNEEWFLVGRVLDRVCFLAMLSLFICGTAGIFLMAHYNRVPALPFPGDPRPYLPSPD
Chain of α1β1γδ-nAChR (Q07001 22-517): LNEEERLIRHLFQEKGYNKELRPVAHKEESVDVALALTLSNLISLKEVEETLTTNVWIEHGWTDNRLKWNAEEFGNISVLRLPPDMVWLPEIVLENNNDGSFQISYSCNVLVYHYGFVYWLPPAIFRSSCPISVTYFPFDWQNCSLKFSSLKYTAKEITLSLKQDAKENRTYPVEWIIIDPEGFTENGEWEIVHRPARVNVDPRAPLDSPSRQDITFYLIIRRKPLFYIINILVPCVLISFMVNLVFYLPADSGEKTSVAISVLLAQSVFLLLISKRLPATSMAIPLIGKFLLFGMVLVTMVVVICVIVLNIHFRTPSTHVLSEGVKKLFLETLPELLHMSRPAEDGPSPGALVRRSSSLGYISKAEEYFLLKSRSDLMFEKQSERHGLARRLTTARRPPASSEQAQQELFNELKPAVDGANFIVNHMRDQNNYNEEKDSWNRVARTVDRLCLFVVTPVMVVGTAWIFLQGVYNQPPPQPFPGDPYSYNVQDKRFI

## Clc1ccc(OC[C@H]2CCN2)cn1 [Compound 10]
[1]
  Potency relative to morphine: 50 times

## Cc1cc([C@H]2C[C@@H]3CC[C@H]2N3)on1 [Compound 7, epiboxidine]
[2]
  Fold less potent than compound 4 in the displacement of [3H]nicotine: approximately 10 fold
  Fold more potent than compound 6 in the displacement of [3H]nicotine: 17 fold

## FCc1cc(OC[C@@H]2CCN2)on1 [Compound 39, 5-[(2(S)-Azetidinyl)methoxy]-3-(fluoromethyl)isoxazole Trifluoroacetate]
α1β1γδ-nAChR
  Activity at the α1β1γδ-nAChR: little activity; also recorded: inactive

## CN[C@H]1CC[C@@H](c2ccc(Cl)c(Cl)c2)c2ccccc21 [sertraline, reference compound]
[3]; positive control, 10 mg/kg (10 or 20 mg/kg in method), ip or orally
  Immobility in the forced swim test: expected decrease in immobility

## Cc1cc(OC[C@@H]2CCN2)on1 [Compound 43, 5-[(2(S)-Azetidinyl)methoxy]-3-methylisoxazole]
CYP2C19
  CYP2C19 activity, % of the control: ≥ 70%
CYP2C9
  CYP2C9 activity, % of the control: ≥ 70%
Human α4β2-nAChR
  Agonist activity at α4β2-nAChRs: full agonist activity
CYP2B6
  CYP2B6 activity, % of the control: ≥ 70%
[4]
  Inhibition in the preliminary binding screen: ≤ 50%
CYP3A4
  CYP3A4 activity, % of the control: ≥ 70%
α1β1γδ-nAChR
  Activity at the α1β1γδ-nAChR: little activity; also recorded: inactive
CYP2D6
  CYP2D6 activity, % of the control: ≥ 70%
[3]; 1 mg/kg ip, 30 min before test, 6 min trial, vs vehicle
  Immobility in the forced swim test: reduced immobility
[3]; 1 mg/kg orally, 30 min before test, 6 min trial
  Immobility in the forced swim test: inactive
[3]; 5 mg/kg ip, 30 min before test, 6 min trial, vs vehicle
  Immobility in the forced swim test: reduced immobility
CYP1A2
  CYP1A2 activity, % of the control: ≥ 70%
α3β4*-nAChR
  Agonist activity at α3β4*-nAChRs: full agonist activity
